Experimental data published in the SangsterLogP compilation.

Test: method code SF-AS, from DOI: 10.1002/jps.2600830428, PMID: 8046619
Settings: pH 7.4

Row | logD | SMILES
1 | -1.54 | O=c1nc(/N=C/N2CCOCC2)ccn1[C@H]1C[C@H](O)[C@@H](CO)O1
2 | -1.66 | O=c1nc(N=CN2CCOCC2)ccn1[C@@H]1O[C@H](CO)[C@@H](O)[C@@H]1O
3 | -1.15 | O=c1nc(N=CN2CCCC2)ccn1[C@@H]1O[C@H](CO)[C@@H](O)[C@@H]1O
